According to patent US10765716B2, “Obesity treatment” (priority 2017, dated 2020):

Columns and labels:
Format in all cases: in vivo, male Wistar rats
[1] = system: high-fat diet induced obese rats; assay: Renal and liver toxicity assessment after 12 weeks of treatment period
Protocol: Whereas for therapeutic studies the animal groups were as follow: Group 1 (TA), Control; animals in this group received LFD, and distilled water Group 2 (TC), Pathological control; animals in this group received HFD, and distilled water. Groups 3 (TO), High fat diet induced obese animals in this group received standard drug Orlistat (100 mg/kg/day). Group 4 (TS): High fat diet induced obese animals in this group received standard drug Sibutramine (5 mg/kg/day), Group 5 (TC1): High fat diet induced obese animals in this group received C. latifolia extract (150 mg/kg/day). Group 6 (FC2) High fat diet induced obese animals in this group received C. latifolia extract (300 mg/kg/day). […]
Blood glucose, serum insulin, total cholesterol, triglycerides, HDL, LDL, very low density lipoproteins […], urea, creatinine, aspartate aminotransferase […], alkaline phosphatase (ALP), serum glutamic pyruvic transaminase (SGPT), and direct and total bilirubin were estimated. Fasting blood glucose levels were measured using glucometer (AccuChek Performa, Australia). Fasting insulin levels were quantified using ultra sensitive rat insulin ELISA kit (Crystal Chem. Downers Grove, USA). Insulin sensitivity was evaluated using Homeostatic Model Assessment (HOMA). […]

high fat diet rats = assay: Preventive study: high fat diet rats given extract or standard drugs for 8 weeks (food intake, body weight, lipid profile, fasting blood glucose, liver histology); settings: preventive study 8 weeks
Protocol: (§1) The crude extracts of C. latifolia were suspended in distilled water before its administration to the rat models. Orlistat and Sibutramine were used as standard drugs at doses of 100 mg/kg, and 5 mg/kg, respectively (dissolved in distilled water).
(§2) Thirty male Wistar rats (210-220 g) were obtained from the animal house facility of Dr. Panjwani Center for Molecular Medicine and Drug Research (ICCBS). All animals were kept under standard conditions of temperature and humidity with a 12 h light/dark cycle, approved by the Ethical Committee of International Center for Chemical and Biological Sciences (Protocol number: 2013-0001). After one week of acclimation period, rats were randomly divided into […]. The control group was fed with normal diet (D12450B, Research Diets, USA), whereas the other groups were fed high-fat diet (D12451, Research Diets, USA) for a period of 16-week. After 10 weeks, biochemical parameters were evaluated regularly to establish whether the model has developed the symptoms of metabolic syndrome. […]
(§3) Body weights were recorded weekly throughout the experiment. The food intake was calculated by using following formula, as described by Ghezzi et al, 2012: […]
(§4) Blood glucose, serum insulin, total cholesterol, triglycerides, HDL, LDL, very low density lipoproteins […], urea, creatinine, aspartate aminotransferase […], alkaline phosphatase (ALP), serum glutamic pyruvic transaminase (SGPT), and direct and total bilirubin were estimated. Fasting blood glucose levels were measured using glucometer (AccuChek Performa, Australia). Fasting insulin levels were quantified using ultra sensitive rat insulin ELISA kit (Crystal Chem. Downers Grove, USA). Insulin sensitivity was evaluated using Homeostatic Model Assessment (HOMA). Serum total cholesterol, triglycerides, HDL, LDL, VLDL, urea, creatinine, AST, ALP, SGPT, and direct and total bilirubin were analyzed using automatic analyzer (Hitachi, Roche Diagnostics 902, Tokyo, Japan).

[2] = system: high-fat diet induced obese rats; assay: Therapeutic study: high-fat diet induced obese rats treated for 12 weeks (food intake, body weight, lipid profile, fasting blood glucose, leptin, insulin, histology); settings: for average food intake (in words): therapeutic study 12 weeks, Orlistat (TO), Sibutramine (TS), extract (TC1 and TC2)
Protocol: as §1, §2, §3, §4

Structure (SMILES)	Direct bilirubin ([1]; rat, in vivo, 100 mg/kg) [mg/dL]	FBG (fasting blood glucose) (high fat diet rats; 100 mg/kg (PO)) [mg/dL]	average food intake (in words) [2]	Direct bilirubin ([1]; liver toxicity, after 12 weeks of treatment, 5 mg/kg (TS)) [mg/dL]	FBG (fasting blood glucose) (high fat diet rats; 5 mg/kg (PS)) [mg/dL]	Triglyceride (high fat diet rats; serum, 5 mg/kg (PS)) [mg/dL]	FBG (fasting blood glucose) ([2]; after 12 weeks of treatment, 5 mg/kg (TS)) [mg/dL]
CCCCCCCCCCC[C@@H](C[C@@H]1OC(=O)[C@H]1CCCCCC)OC(=O)[C@H](CC(C)C)NC=O [Orlistat]	0.06 ± 0.008	79 ± 1.04	decrease	–	–	–	–
CC(C)CC(N(C)C)C1(c2ccc(Cl)cc2)CCC1 (centres unmarked) [Sibutramine]	–	–	decrease	0.03 ± 0.004	76 ± 2.12	51 ± 0.19	80 ± 0.12
